Laboratory results: PubChem BioAssay (NCI)
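All cell lines were grown in 96-well plates and treated with compound for 48 hours. Abbreviation: GI50, concentration required for 50% inhibition of growth. TGI is the concentration that stops growth completely.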

Tests used:
Assay in all cases: NCI-60 cell line screen, 48 h
[1] = system: UO-31 renal
[2] = system: KM20L2 colon
[3] = system: DMS 273 small cell lung
[4] = system: RPMI-8226 leukemia
[5] = system: MOLT-4 leukemia
[6] = system: HT29 colon
[7] = system: SK-MEL-5 melanoma
[8] = system: A498 renal
[9] = system: OVCAR-4 ovarian
[10] = system: NCI/ADR-RES ovarian
[11] = system: PC-3 prostate

Structure (SMILES)	TGI [1]	TGI [2]	TGI [3]	TGI [4]	TGI [5]	TGI [6]	TGI [7]	TGI [8]	TGI [9]	TGI [10]	GI50 [7]	GI50 [10]	GI50 [1]	GI50 [11]	TGI [11]	GI50 [8]	GI50 [9]	GI50 [4]	GI50 [5]	GI50 [6]
CCCCc1c2c(nc3c1CC/C(=C\c1ccc([N+](=O)[O-])cc1)C3=O)CCCC2	4.13 µM	4.01 µM	3.78 µM	5.69 µM	7.72 µM	2.66 µM														
O=C1CSC(C(N=Nc2ccc(Cl)cc2)c2nc3ccccc3[nH]2)=N1 (centres undefined)	> 100 µM	> 100 µM	> 100 µM	> 100 µM	39.8 µM	> 100 µM	88.4 µM	> 100 µM	> 100 µM											
CC(C)[C@](O)(C(=O)OCC1=CCN2CC[C@@H](O)[C@@H]12)[C@H](C)O	> 375 µM	> 375 µM	> 375 µM	> 375 µM	> 375 µM	> 375 µM	> 80.8 µM	> 375 µM	> 375 µM	> 375 µM										
C[C@]12CCc3sc(-c4cccc(F)c4)nc3C1=CC[C@@H]1[C@@H]2CC[C@]2(C)C(=O)CC[C@@H]12	2.98 µM			5.65 µM	7.89 µM	> 100 µM	16.9 µM	17.9 µM	> 100 µM	57.5 µM	4.05 µM	3.41 µM	1.61 µM	3.08 µM	14.2 µM	3.2 µM	5.51 µM	1.91 µM	1.69 µM	2.69 µM
CC(=O)OC1OC(c2ccoc2)C[C@@]12C1CCC3O[C@]3(C)[C@]1(C)C[C@H](OC(C)=O)[C@H]2C (some centres undefined)	> 75 µM			> 75 µM	> 75 µM	> 75 µM	> 75 µM	> 75 µM	> 75 µM	> 75 µM					> 75 µM					
CCCCS(=O)CC(CO)NC(=O)/C=C/c1c(C)[nH]c(=O)[nH]c1=O (centres undefined)	73.3 µM	56.8 µM	52.7 µM	59.2 µM	50 µM	122 µM	21.5 µM	32.5 µM	26.4 µM	93.2 µM										
C=CCN1C[C@@H](C)N([C@@H](c2ccc(C(=O)N(CC)CC)cc2)c2cccc(OC)c2)C[C@@H]1C	> 100 µM			> 100 µM	> 100 µM	> 100 µM	> 100 µM	> 100 µM	> 100 µM	> 100 µM					> 100 µM					
O=C1C2CC=CCC2C(=O)N1n1c(Cc2ccccc2)n[nH]c1=O (centres undefined)	> 100 µM			> 100 µM	> 100 µM	> 100 µM	> 100 µM	> 100 µM	> 100 µM	> 100 µM					> 100 µM					
Nc1[nH]c(=S)c2c(N)n[nH]c2c1C(=O)Nc1ccc(Cl)cc1	> 100 µM			> 100 µM	> 100 µM	> 100 µM	> 100 µM	> 100 µM	> 100 µM	> 100 µM					> 100 µM					
NC(=O)CNC(=O)[C@@H]1C[C@@H](OCCC(=O)O)CN1C(=O)OCc1ccccc1	> 100 µM			> 100 µM	> 100 µM	> 100 µM	> 100 µM	> 100 µM	> 100 µM	> 100 µM					> 100 µM					
CCN(CC)CC(=O)Nc1ccc2c(c1)C(=O)c1ccc(NC(=O)CN(CC)CC)cc1C2=O	> 100 µM	> 100 µM	> 100 µM	> 100 µM	81.5 µM	> 100 µM	48.9 µM	> 100 µM	> 100 µM											
COc1cc2cc3c4c(cc(OC)c(OC)c4c2cc1OC)CCN3C(=O)CCC(=O)O	> 100 µM	> 100 µM	> 100 µM	> 100 µM	> 100 µM	> 100 µM	> 100 µM	> 100 µM	> 100 µM											
NC(=O)C1CCCN1C(=O)N(CCCl)N=O (centres undefined)	> 100 µM			> 100 µM	> 100 µM	> 100 µM	> 100 µM	> 100 µM	> 100 µM	> 100 µM					> 100 µM					
O=C1CCCN1CCCN=c1cc2n(-c3ccc(Cl)cc3)c3ccccc3nc-2cc1Nc1ccc(Cl)cc1	51.3 µM	11 µM	43.6 µM	28.1 µM	27 µM	13 µM	19 µM	43.2 µM	21.8 µM	42.1 µM										
CNc1nc2c(C)ccc3[nH]c(N(C)C)nc3c-2n1	> 100 µM			61.2 µM	> 100 µM	> 100 µM	50.3 µM	> 100 µM	80.9 µM	> 100 µM					> 100 µM					
Cc1cccc(C(=O)O)c1CC1NCCC2c3ccccc3NC12 (centres undefined)	> 100 µM			> 100 µM	> 100 µM	> 100 µM	> 100 µM	> 100 µM	> 100 µM	> 100 µM					> 100 µM					

Structure (SMILES)	TGI [1]	TGI [2]	TGI [3]	TGI [4]	TGI [5]	TGI [6]	TGI [7]	TGI [8]	TGI [9]	TGI [10]	GI50 [7]	GI50 [10]	GI50 [1]	GI50 [11]	TGI [11]	GI50 [8]	GI50 [9]	GI50 [4]	GI50 [5]	GI50 [6]
O=C1CCCC[C@H]1C(O)CC1CC(=O)N(c2ccccc2)C(=O)C1 (some centres undefined)	> 100 µM			> 100 µM	> 100 µM	> 100 µM	> 100 µM	> 100 µM	> 100 µM	> 100 µM					> 100 µM					
COc1ccc(-c2nc3c(nc2-c2ccc(OC)cc2)N(C)S(=O)(=O)N=C3N)cc1	53.2 µM	> 100 µM	> 100 µM	40.6 µM	48.5 µM	74.9 µM	26.2 µM	> 100 µM	79.2 µM											
O=C(c1ccccc1)c1nn(-c2ccccc2)c2nc3nc(-c4ccccc4)cc(=O)n3nc12	> 100 µM			50.8 µM	49.3 µM	64.2 µM	27.1 µM	> 100 µM	68.4 µM	74.5 µM	13.6 µM	26.2 µM	25.7 µM	32.4 µM	> 100 µM	44.8 µM	22.9 µM	21.4 µM	21.8 µM	24.7 µM
COCn1c(C)c(C)c2c(=O)oc(C)nc21	> 100 µM			> 100 µM	> 100 µM	> 100 µM	> 100 µM	> 100 µM	> 100 µM	> 100 µM					> 100 µM					
CC(=O)OC1[C@H](n2ccnc2)C[C@H]2[C@@H]3CC=C4CC(N5CCCC5)CC[C@]4(C)[C@H]3CC[C@]12C (some centres undefined)	> 100 µM			> 100 µM	48.8 µM	> 100 µM	> 100 µM	> 100 µM	> 100 µM	> 100 µM					> 100 µM					
Cc1cc(C)c2c(=O)cc(-c3ccc4ccccc4c3)[nH]c2n1	> 100 µM			27.8 µM	12.9 µM	59.8 µM	9.42 µM	24.1 µM	> 100 µM	> 63.9 µM					> 100 µM					
O=c1c2c3c(sc2nc2n1N=C(c1ccc([N+](=O)[O-])cc1)CS2)CCCC3	> 100 µM			> 100 µM	> 100 µM	> 100 µM	> 100 µM	> 100 µM	> 100 µM	> 100 µM					> 100 µM					
O=C1Nc2ccccc2/C1=C\c1c(Cl)nc2n1CCS2	> 100 µM			> 100 µM	97.9 µM	> 100 µM	29.4 µM	61.4 µM	> 100 µM	67.5 µM					80.4 µM					
CC1CC(C(=O)OC2OC(COC3OC(CO)C(OC4OC(C)C(O)C(O)C4O)C(O)C3O)C(O)C(O)C2O)C2CCC3(C)C(=CCC4(C)C3CCC3C(C)(CO)C(O)C(O)CC34C)C2C1C (centres undefined)	> 100 µM			49.2 µM	41.4 µM	41.1 µM	33 µM	> 10 µM	37.3 µM	> 100 µM					84.6 µM					
COC(=O)C1C(O)C(C)C(O)OC1C(C)C(O)C(C)/C=C\C=C(/C)C(=O)Nc1c(C)c(OC(C)=O)c2c(c1O)C(=O)C(C)=C1OCOC(/C(C)=C/C(C)=O)=C12 (centres undefined)	25.1 µM	24.4 µM	25 µM	28.2 µM	33.3 µM	26.5 µM	23.5 µM	30.6 µM	23 µM	30.5 µM										
NC(C(=O)OC(=O)c1ccccc1)C(=O)OC(=O)c1ccccc1	> 100 µM			> 100 µM	> 100 µM	> 100 µM	> 100 µM	> 100 µM	> 100 µM	> 100 µM					> 100 µM					
CC(=O)c1ccccc1NS(=O)(=O)c1ccc2nc(C)n(NS(=O)(=O)c3ccccc3C(C)=O)c(=O)c2c1	> 100 µM			> 100 µM	> 100 µM	> 100 µM	> 100 µM	> 100 µM	> 100 µM	> 100 µM					> 100 µM					
CN=C(NC)N(C)c1nc(=[N+](C)C)ss1	> 100 µM		> 100 µM		> 100 µM	> 100 µM	> 100 µM	> 100 µM												
COc1ccc(N(C(=O)NCCO)c2ccccc2)cc1	> 100 µM			> 100 µM	> 100 µM	> 100 µM	> 100 µM	> 100 µM	> 100 µM	> 100 µM					> 100 µM					
N#CCCN(CCC#N)c1ccc(C(N=Nc2ccc(Cl)cc2)=Nc2ccc(Cl)cc2)cc1	29.4 µM			> 100 µM	87.8 µM	44.6 µM	24.7 µM	43.3 µM	81.2 µM	38 µM					32.1 µM					
O=S(=O)(/N=C(\NO)Nc1ccc(Cl)cc1)C1CC=C(c2ccon2)S1 (centres undefined)	81.6 µM			> 50.3 µM	> 51.3 µM	> 100 µM	> 62.1 µM	> 75.9 µM	> 100 µM	> 100 µM					> 100 µM					
